Data published in ChEMBL document CHEMBL1201862, “PubChem BioAssay data set” (2004).
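96-well plates; 48 h exposure; 5 concentrations. Endpoints by linear interpolation between flanking doses. Not reached: highest tested concentration assigned. The concentration for 50% growth inhibition is given as GI50.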 Active and inactive are the calls of the source. Cut-off read from the data, not from the text of the source: active = GI50 up to about 1.1 µM and inactive = higher.

How the values were obtained:
Experiment in all cases: NCI-60 cell line screen, 48 h
CCRF-CEM = system: CCRF-CEM
COLO 205 = system: COLO 205
HCT-15 = system: HCT-15
HL-60 = system: HL-60
HOP-62 = system: HOP-62
HOP-92 = system: HOP-92
IGROV-1 = system: IGROV-1
KM-20L2 = system: KM-20L2
MCF7 = system: MCF7
NCI-H23 = system: NCI-H23
NCI-H460 = system: NCI-H460
NCI-H522 = system: NCI-H522
OVCAR-4 = system: OVCAR-4
RXF 393 = system: RXF 393
SK-MEL-2 = system: SK-MEL-2
SN12C = system: SN12C
SW-620 = system: SW-620
U-251 = system: U-251
ACHN = system: ACHN
M14 = system: M14

Row | SMILES | GI50 (CCRF-CEM) | GI50 (COLO 205) | GI50 (HCT-15) [µM] | GI50 (HL-60) | GI50 (HOP-62) | GI50 (HOP-92) | GI50 (IGROV-1) | GI50 (KM-20L2) | GI50 (MCF7) | GI50 (NCI-H23) | GI50 (NCI-H460) | GI50 (NCI-H522) | GI50 (OVCAR-4) | GI50 (RXF 393) | GI50 (SK-MEL-2) | GI50 (SN12C) | GI50 (SW-620) | GI50 (U-251) | GI50 (ACHN) | GI50 (M14)
1 | CC(=O)OC1C(O)C(C)OC(OC(=O)C2CCC3C(C2)OC2(CC(OC(=O)/C=C/c4ccccc4)C(C)CO2)C32CO2)C1OC1OC(C)C(O)C(O)C1O (stereo not drawn) | 0.0342 µM (active) | 0.0341 µM (active) | 3.96 | 0.0336 µM (active) | 0.0794 µM (active) | 0.0325 µM (active) | 0.0378 µM (active) | 0.0425 µM (active) | 0.0325 µM (active) | 0.0467 µM (active) | 0.0448 µM (active) | 0.0325 µM (active) | 0.0325 µM (active) | 0.0644 µM (active) | 0.0325 µM (active) | 0.0514 µM (active) | 0.0504 µM (active) | 0.04 µM (active) |  | 
2 | CC1OC(CO)(n2cnc3c(N)ncnc32)C(O)C1O (stereo not drawn) | > 100 µM (inactive) | > 100 µM (inactive) | > 100 | > 100 µM (inactive) | > 100 µM (inactive) | > 100 µM (inactive) | > 100 µM (inactive) | > 100 µM (inactive) | > 100 µM (inactive) | > 100 µM (inactive) | > 100 µM (inactive) | > 100 µM (inactive) | > 100 µM (inactive) | > 100 µM (inactive) | > 100 µM (inactive) | > 100 µM (inactive) | > 100 µM (inactive) | > 100 µM (inactive) |  | 
3 | O=C(O)CN1CCN(CC(=O)O)CCN(CC(=O)O)CC1 | 3.91 µM (inactive) | 2.57 µM (inactive) | 4.53 | 1.69 µM (inactive) | > 100 µM (inactive) | 38.2 µM (inactive) | 4.85 µM (inactive) |  | 5.65 µM (inactive) | 28.6 µM (inactive) | 3.49 µM (inactive) | 5.22 µM (inactive) | 34.1 µM (inactive) | 5.64 µM (inactive) | > 43.3 µM (inactive) | > 100 µM (inactive) | 8.47 µM (inactive) | 16.4 µM (inactive) | > 100 µM (inactive) | 38.3 µM (inactive)
4 | C=CCNC(=O)CN(CC(=O)OC)C1CCCCC1N(CC(=O)OC)CC(=O)OC (stereo not drawn) | > 100 µM (inactive) |  | > 100 | > 100 µM (inactive) | > 100 µM (inactive) | > 100 µM (inactive) | > 100 µM (inactive) |  | > 100 µM (inactive) | > 100 µM (inactive) | > 100 µM (inactive) | > 100 µM (inactive) |  | > 100 µM (inactive) | > 100 µM (inactive) | > 100 µM (inactive) | > 100 µM (inactive) | > 100 µM (inactive) | > 100 µM (inactive) | > 100 µM (inactive)
5 | CCOc1ccc2nc(NC(=O)C(=O)C(C(=O)c3ccccc3F)C3OC(=O)c4ccccc43)sc2c1 (stereo not drawn) | 12.3 µM (inactive) | 15.6 µM (inactive) | 14.5 | 16.8 µM (inactive) | 23.5 µM (inactive) |  | 25.6 µM (inactive) | 27.9 µM (inactive) |  |  | 17.5 µM (inactive) | 14 µM (inactive) | 19.2 µM (inactive) | 21.5 µM (inactive) | 19.6 µM (inactive) | 16.4 µM (inactive) | 19.3 µM (inactive) | 11.1 µM (inactive) | 33.2 µM (inactive) | 16.5 µM (inactive)
6 | Cn1c(=O)c2nc(N3CCCCC3)cnc2n(C)c1=O | > 100 µM (inactive) | > 100 µM (inactive) | > 100 | > 100 µM (inactive) | > 100 µM (inactive) | > 100 µM (inactive) | > 100 µM (inactive) | > 100 µM (inactive) |  | > 100 µM (inactive) | > 100 µM (inactive) | > 100 µM (inactive) | > 100 µM (inactive) |  |  | > 100 µM (inactive) | > 100 µM (inactive) | > 100 µM (inactive) | > 100 µM (inactive) | > 100 µM (inactive)
7 | CNC(=O)N(C)COC | > 100 µM (inactive) | > 100 µM (inactive) | > 100 | > 100 µM (inactive) | > 100 µM (inactive) |  | > 100 µM (inactive) | > 100 µM (inactive) |  |  | > 100 µM (inactive) | > 100 µM (inactive) | > 100 µM (inactive) |  | > 100 µM (inactive) | > 100 µM (inactive) | > 100 µM (inactive) | > 100 µM (inactive) | > 100 µM (inactive) | > 100 µM (inactive)
8 | CC(C)CNC1=NCC(C)S1 (stereo not drawn) | > 100 µM (inactive) | > 100 µM (inactive) | > 100 | > 100 µM (inactive) | > 100 µM (inactive) | > 100 µM (inactive) | > 100 µM (inactive) |  | > 100 µM (inactive) | > 100 µM (inactive) | > 100 µM (inactive) | > 100 µM (inactive) |  | > 100 µM (inactive) | > 100 µM (inactive) |  | > 100 µM (inactive) | > 100 µM (inactive) | > 100 µM (inactive) | > 100 µM (inactive)
9 | C=C1C(=O)OC2C=C(C)CC3C=C(CCC=C(C)CCC12)C(=O)O3 (stereo not drawn) | 16.5 µM (inactive) | 53.1 µM (inactive) | 56.6 | 15.7 µM (inactive) | 114 µM (inactive) | 52.8 µM (inactive) | 48 µM (inactive) | 52.7 µM (inactive) | 47.5 µM (inactive) | 49.3 µM (inactive) | 67.5 µM (inactive) | 17.3 µM (inactive) | 72.3 µM (inactive) | 31.3 µM (inactive) | 53.3 µM (inactive) | 69 µM (inactive) | 31 µM (inactive) | 65 µM (inactive) |  | 
10 | Cc1cn(Cc2cn(CC3OC(n4cc(C)c(=O)[nH]c4=O)CC3O)nn2)c(=O)[nH]c1=O (stereo not drawn) | > 100 µM (inactive) | > 100 µM (inactive) | > 100 |  | > 100 µM (inactive) |  |  |  | > 100 µM (inactive) | > 100 µM (inactive) |  |  | > 100 µM (inactive) | > 100 µM (inactive) | > 100 µM (inactive) | > 100 µM (inactive) | > 100 µM (inactive) | > 100 µM (inactive) | > 100 µM (inactive) | > 100 µM (inactive)
11 | O=C1C(Cl)N(c2ccccc2Cl)C1c1c[nH]c2ccccc12 (stereo not drawn) | > 100 µM (inactive) | > 100 µM (inactive) |  | > 100 µM (inactive) | > 100 µM (inactive) | > 100 µM (inactive) | > 100 µM (inactive) | > 100 µM (inactive) |  | > 100 µM (inactive) | > 100 µM (inactive) | > 100 µM (inactive) | > 100 µM (inactive) | > 100 µM (inactive) | > 100 µM (inactive) | > 100 µM (inactive) | > 100 µM (inactive) | > 100 µM (inactive) |  | > 100 µM (inactive)
